Measurements from PubChem BioAssay (NCI).
Where “and” joins values, the source holds several entries; their conditions need not be identical. Equal values may be shown once.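 How tested: cells in 96-well plates exposed to compound for 48 hours at five concentrations. GI50: concentration for 50% inhibition of growth. TGI is the concentration that stops growth completely.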

Tests used:
Assay in all cases: NCI tumour cell line growth inhibition, 48 h
[1] = system: U251 CNS
[2] = system: SNB-19 CNS
[3] = system: CAKI-1 renal
[4] = system: OVCAR-3 ovarian
[5] = system: NCI/ADR-RES ovarian
[6] = system: HOP-62 NSCLC
[7] = system: CCRF-CEM leukemia
[8] = system: OVCAR-5 ovarian
[9] = system: COLO 205 colon
[10] = system: SK-OV-3 ovarian

Compound	GI50 [1]	TGI [1]	GI50 [2]	TGI [2]	GI50 [3]	TGI [3]	GI50 [4]	TGI [4]	GI50 [5]	TGI [5]	GI50 [6]	TGI [6]	GI50 [7]	TGI [7]	GI50 [8]	TGI [8]	GI50 [9]	TGI [9]	GI50 [10]	TGI [10]
CCOC(=O)c1cnc(SCc2ccc(Cl)c(Cl)c2)nc1N1CC1	3.71 µM	18.2 µM	6.93 µM	23.8 µM	2.08 µM	6.98 µM	2.63 µM	7 µM	2.91 µM	8.72 µM	2.95 µM	13.6 µM	2.82 µM	28.1 µM	4.67 µM	19.4 µM	2.9 µM	13.2 µM	2.85 µM	10.4 µM
O=C(Nc1n[nH]c2nc(-c3ccco3)c(Br)cc12)C1CC1	> 25 µM	> 25 µM	> 25 µM	> 25 µM	> 25 µM	> 25 µM	> 25 µM	> 25 µM	> 25 µM	> 25 µM	> 25 µM	> 25 µM	> 21.7 µM	> 25 µM	> 25 µM	> 25 µM	> 25 µM	> 25 µM	15.9 µM	> 25 µM
COc1ccc(N(C)c2nc(C)nc3ccccc23)cc1	< 0.01 µM	> 100 µM	< 0.01 µM	> 100 µM	< 0.01 µM	46.4 µM	< 0.01 µM	< 0.01 µM	< 0.01 µM	–	< 0.01 µM	> 100 µM	< 0.01 µM	> 100 µM	< 0.01 µM	> 100 µM	< 0.01 µM	< 0.01 µM	< 0.01 µM	> 26.1 µM
Cc1ccc(S(=O)(=O)N/N=C/C(Br)=C(/Br)C(=O)O)cc1	–	18.8 µM	–	28.8 µM	–	18.1 µM	–	20.2 µM	–	17.9 µM	–	43.6 µM	–	9.67 µM	–	> 55.5 µM	–	13.3 µM	–	34.8 µM
N#C/C(=C\c1c(-c2ccccc2)[nH]c2ccccc12)C(=O)c1ccc(Cl)cc1	1.11 µM	16.2 µM	3.07 µM	20.2 µM	1.23 µM	> 31.2 µM	1.52 µM	4.65 µM	0.575 µM	12.6 µM	5.41 µM	26 µM	2.48 µM	> 100 µM	8.58 µM	46.9 µM	0.814 µM	5.43 µM	3.02 µM	14.8 µM
CC(Cc1ccc(Cl)cc1Cl)NO (stereo not drawn)	–	> 100 µM	–	> 100 µM	–	> 100 µM	–	> 100 µM	–	> 100 µM	–	> 100 µM	–	> 100 µM	–	> 100 µM	–	> 100 µM	–	> 100 µM
O=C(CCCc1c[nH]c2ccccc12)NC1CC(=O)c2c(Br)sc(Br)c21 (stereo not drawn)	7.29 µM	19.9 µM	14.3 µM	29 µM	10.2 µM	31.6 µM	10.4 µM	29.3 µM	23.3 µM	70.3 µM	18.3 µM	33 µM	12.9 µM	> 100 µM	16 µM	31.7 µM	19.8 µM	41.3 µM	22.7 µM	55.2 µM
C[C@@H](c1ccc2nccn2c1)n1nnc2ncc(-c3cnn(C)c3)nc21	> 100 µM	> 100 µM	> 100 µM	> 100 µM	> 100 µM	> 100 µM	> 100 µM	> 100 µM	> 100 µM	> 100 µM	> 100 µM	> 100 µM	> 100 µM	> 100 µM	> 100 µM	> 100 µM	> 100 µM	> 100 µM	> 100 µM	> 100 µM
COc1cc(CCc2cc(NC(=O)c3ccc(N4C[C@@H](C)N[C@@H](C)C4)cc3)n[nH]2)cc(OC)c1	> 10 µM and 3.86 µM	> 10 µM and 18 µM	> 10 µM and 14.9 µM	> 10 µM and 30.8 µM	> 10 µM and 5.76 µM	> 10 µM and 21.8 µM	> 10 µM and 15.7 µM	> 10 µM and 30 µM	> 10 µM and 17.1 µM	> 10 µM and 36.8 µM	> 10 µM and 7.2 µM	> 10 µM and 20.3 µM	> 10 µM and 3.69 µM	> 10 µM and 18.3 µM	> 10 µM and 5.01 µM	> 10 µM and 16.9 µM	3.58 µM and 3.61 µM	> 10 µM and 11.5 µM	9.23 µM and 7.04 µM	> 10 µM and 19.3 µM
O=C1c2cc3c(cc2-c2c1c1cc(Cl)c(Cl)cc1c(=O)n2CCCn1ccnc1)OCO3	< 0.01 µM	11.6 µM	< 0.01 µM	> 100 µM	< 0.01 µM	> 100 µM	0.0425 µM	18.8 µM	< 0.01 µM	11.6 µM	< 0.01 µM	–	< 0.01 µM	> 100 µM	0.0239 µM	> 100 µM	< 0.01 µM	> 100 µM	< 0.01 µM	0.0305 µM
CCCCCCCCCCCCCCCCCCNC(=O)[C@H]1CSC(c2ccc(OC)c(F)c2)N1 (stereo partly drawn)	4.48 µM	22.9 µM	21.2 µM	> 52.1 µM	3.98 µM	16.9 µM	7.84 µM	> 50.2 µM	2.52 µM	6.22 µM	2.16 µM	5.12 µM	0.731 µM	8.13 µM	3.55 µM	> 33.4 µM	> 39.1 µM	> 60.5 µM	> 42 µM	> 58 µM
Cc1cc2c(C)c3cc(C)c(N)cc3nc2cc1N	0.648 µM	5.72 µM	0.685 µM	10.2 µM	2.03 µM	8.66 µM	1.18 µM	5.35 µM	4.92 µM	25.3 µM	1.11 µM	7.08 µM	0.93 µM	10.6 µM	0.884 µM	5.34 µM	0.581 µM	3.31 µM	0.963 µM	8.39 µM
Cc1cc(NC(=O)C2c3ccccc3C(=O)N(CC(C)C)C2c2cccs2)no1 (stereo not drawn)	84.2 µM	> 100 µM	46.2 µM	> 100 µM	25.6 µM	> 100 µM	90.1 µM	> 100 µM	90.2 µM	> 100 µM	> 100 µM	> 100 µM	82.5 µM	> 100 µM	> 100 µM	> 100 µM	> 100 µM	> 100 µM	> 100 µM	> 100 µM
